Counter-ions that a name gives are not always drawn. Like-named read-outs stand apart in the source and are kept apart here.

In the assay the target is T1, Human TRPA1 (Homo sapiens, UniProt O75762).
T1 construct: expressed in transfected cells; host or cells: CHO cells (grown with 400 μg/ml G-418)
Briefly: 45Calcium uptake assay: inhibition of AITC induced cellular uptake of radioactive calcium. In kind it is cell-based. The note with it: human TRPA1 expressing CHO cells, AITC 30 μM. The method, then:
The illustrative examples of the present invention were screened for TRPA1 activity according to a modified procedure described in (a) Tóth, A. et al. Life Sciences, 2003, 73, 487-498. ([…]. et al, Proc. Natl. Acad. Sci. U.S.A., 2007, 104, 13525-13530. The screening of the compounds can be carried out by other methods and procedures known to persons skilled in the art. Screening for TRPA1 Antagonist Using the ^45Calcium Uptake Assay: The inhibition of TRPA1 receptor activation was measured as inhibition of allyl isothiocyanate (AITC) induced cellular uptake of radioactive calcium. Test compounds were dissolved in 100% DMSO to prepare 10 mM stock and then diluted using plain medium with 0.1% BSA and 1.8 mM CaCl2 to get the desired concentration. The final concentration of DMSO in the reaction was 0.5% (v/v). Human TRPA1 expressing CHO cells were grown in F-12 DMEM medium with 10% FBS, 1% penicillin-streptomycin solution, and 400 μg/ml of G-418. Cells were seeded 24 h prior to the assay in 96 well plates so as to get 50,000 cells per well on the day of experiment. Cells were treated with the test compounds for 10 minutes followed by the addition of AITC at a final concentration of 30 μM and 5 μCi/ml^45Ca^+2 for 3 minutes. Cells were washed and lysed using a buffer containing 1% Triton X-100, 0.1% deoxycholate and 0.1% SDS. Radioactivity in the lysate was measured in a Packard TopCount after addition of liquid scintillant. (Toth et al, Life Sciences (2003) 73, 487-498; McNamara C R et al, Proceedings of the National Academy of Sciences, (2007) 104, 13525-13530). Concentration response curves were plotted as a % of maximal response obtained in the absence of test antagonist. IC50 values can be calculated from concentration response curve by nonlinear regression analysis using GraphPad PRISM software.

The mark [1] stands for this setting: 1.0 μM, read-out: Percentage inhibition at 1.0 μM.
Where [2] appears, read: 10.0 μM, read-out: Percentage inhibition at 10.0 μM.
Setting [3] is: CHO, read-out: Percentage inhibition at 1.0 μM, 1.0 μM.
Setting [4] is: CHO, read-out: Percentage inhibition at 10.0 μM, 10.0 μM.

T1 sequence (O75762 whole entry): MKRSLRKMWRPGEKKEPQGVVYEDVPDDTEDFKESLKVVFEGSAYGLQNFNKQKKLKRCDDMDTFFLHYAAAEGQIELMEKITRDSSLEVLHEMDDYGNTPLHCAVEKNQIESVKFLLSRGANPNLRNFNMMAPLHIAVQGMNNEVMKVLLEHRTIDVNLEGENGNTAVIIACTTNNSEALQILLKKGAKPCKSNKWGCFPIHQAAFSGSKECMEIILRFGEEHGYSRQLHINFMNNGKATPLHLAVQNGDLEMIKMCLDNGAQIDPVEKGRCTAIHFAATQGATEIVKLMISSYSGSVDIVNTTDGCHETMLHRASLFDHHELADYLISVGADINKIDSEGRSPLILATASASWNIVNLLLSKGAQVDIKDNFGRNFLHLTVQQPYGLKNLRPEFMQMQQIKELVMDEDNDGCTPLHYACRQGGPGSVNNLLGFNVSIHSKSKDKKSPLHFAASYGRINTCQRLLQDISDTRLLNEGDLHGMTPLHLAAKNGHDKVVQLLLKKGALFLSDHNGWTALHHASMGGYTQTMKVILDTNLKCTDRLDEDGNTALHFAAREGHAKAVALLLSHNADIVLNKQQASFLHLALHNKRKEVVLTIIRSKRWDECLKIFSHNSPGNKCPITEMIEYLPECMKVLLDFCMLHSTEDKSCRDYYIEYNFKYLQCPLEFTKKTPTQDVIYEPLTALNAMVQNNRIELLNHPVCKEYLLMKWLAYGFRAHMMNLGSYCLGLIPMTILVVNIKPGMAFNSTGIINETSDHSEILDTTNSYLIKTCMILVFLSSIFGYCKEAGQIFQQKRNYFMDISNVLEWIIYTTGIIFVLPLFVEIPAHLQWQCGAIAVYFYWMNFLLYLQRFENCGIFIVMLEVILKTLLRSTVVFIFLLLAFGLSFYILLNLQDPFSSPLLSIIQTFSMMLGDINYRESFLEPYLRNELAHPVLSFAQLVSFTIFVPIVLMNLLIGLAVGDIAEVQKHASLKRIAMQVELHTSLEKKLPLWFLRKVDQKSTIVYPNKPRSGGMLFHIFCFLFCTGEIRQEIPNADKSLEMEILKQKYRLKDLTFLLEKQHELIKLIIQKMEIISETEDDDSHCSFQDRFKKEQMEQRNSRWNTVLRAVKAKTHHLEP

For `CC(C)C(=O)OCn1c(-c2ccc(C(F)(F)F)c(F)c2)cs/c1=N\C(=O)Cc1csc2c1c(=O)n(C)c(=O)n2C` [Example 1, [2-{[(1,3-Dimethyl-2,4-dioxo-1,2,3,4-tetrahydrothieno[2,3-d]pyrimidin-5-yl)acetyl]imino}-4-[3-fluoro-4-(trifluoromethyl)phenyl]-1,3-thiazol-3 (2H)-yl]methyl-2-methyl propanoate], the IC50 (in general, the concentration that gives 50% inhibition) fell in the range of 100 to 500 nM. Moreover, the inhibition (usually the relative decrease from the control value, in per cent) at 1 µM under setting [1] is 68.1%. Under setting [2], the inhibition at 10 µM worked out at 90.3%.

For `CC(C)C(=O)OCn1c(-c2ccc(F)c(C(F)(F)F)c2F)cs/c1=N\C(=O)Cc1csc2c1c(=O)n(C)c(=O)n2C` [Example 2, [4-[2,4-Difluoro-3-(trifluoromethyl)phenyl]-2-{[(1,3-dimethyl-2,4-dioxo-1,2,3,4-tetrahydrothieno[2,3-d]pyrimidin-5-yl)acetyl]imino}-1,3-thiazol-3(2H)-yl]methyl-2-methylpropanoate], the IC50 is greater than 500 nM. For the same molecule, the inhibition at 1 µM under setting [1] was found to be 54.8%. Moreover, the inhibition at 10 µM under setting [2] stood at 70.2%.

In the case of `CC(C)[C@H](N)C(=O)OCn1c(-c2ccc(F)c(C(F)(F)F)c2F)cs/c1=N\C(=O)Cc1csc2c1c(=O)n(C)c(=O)n2C` [Example 5, [4-[2,4-Difluoro-3-(trifluoromethyl)phenyl]-2-{[(1,3-dimethyl-2,4-dioxo-1,2,3,4-tetrahydrothieno[2,3-d]pyrimidin-5-yl)acetyl]imino}-1,3-thiazol-3 (2H)-yl]methyl L-valinate hydrochloride], the IC50 is less than 100 nM. Also, the inhibition at 1 µM (CHO, 1.0 μM, read-out: Percentage inhibition at 1.0 μM) came out at 98.6%. For the same molecule, the inhibition at 10 µM (CHO, 10.0 μM, read-out: Percentage inhibition at 10.0 μM) was 99.9%.

Regarding `Cn1c(=O)c2c(CC(=O)/N=c3\scc(-c4ccc(F)c(C(F)(F)F)c4F)n3COC(=O)[C@@H]3CCCN3)csc2n(C)c1=O` [Example 8, [4-[2,4-Difluoro-3-(trifluoromethyl)phenyl]-2-{[(1,3-dimethyl-2,4-dioxo-1,2,3,4-tetrahydrothieno[2,3-d]pyrimidin-5-yl)acetyl]imino}-1,3-thiazol-3(2H)-yl]methyl L-prolinate hydrochloride], the IC50 is less than 100 nM. Further, under setting [1], the inhibition at 1 µM was found to be 96.5%. In addition, the inhibition at 10 µM under setting [2] worked out at 98.3%.

For `Cn1c(=O)c2c(CC(=O)/N=c3\scc(-c4ccc(C(F)(F)F)c(F)c4)n3COC(=O)C3CCNCC3)csc2n(C)c1=O` [Example 9, [2-{[(1,3-Dimethyl-2,4-dioxo-1,2,3,4-tetrahydrothieno[2,3-d]pyrimidin-5-yl)acetyl]imino}-4-[3-fluoro-4-(trifluoromethyl)phenyl]-1,3-thiazol-3(2H)-yl]methylpiperidine-4-carboxylate hydrochloride], the IC50 lay within 100 to 500 nM. For the same molecule, the inhibition at 1 µM under setting [1] was 80.1%. Also, the inhibition at 10 µM under setting [2] was found to be 94.8%.

As to `Cn1c(=O)c2c(CC(=O)/N=c3\scc(-c4ccc(C(F)(F)F)c(F)c4)n3COP(=O)(O)O)csc2n(C)c1=O` [Example 12, Disodium[2-{[(1,3-dimethyl-2,4-dioxo-1,2,3,4-tetrahydrothieno[2,3-d]pyrimidin-5-yl)acetyl]imino}-4-[3-fluoro-4-(trifluoromethyl)phenyl]-1,3-thiazol-3 (2H)-yl]methyl phosphate], the IC50 is 100 to 500 nM.

As for `Cc1sc2c(c1CC(=O)/N=c1\scc(-c3ccc(F)c(C(F)(F)F)c3F)n1COP(=O)(O)O)c(=O)n(C)c(=O)n2C` [Example 15, 4-(2,4-Difluoro-3-(trifluoromethyl)phenyl)-2-((2-(1,3,6-trimethyl-2,4-dioxo-1,2,3,4-tetrahydrothieno[2,3-(1]pyrimidin-5-yl)acetyl)imino)thiazol-3 (2H)-yl)methyl dihydrogen phosphate], the IC50 was in the range of 100 to 500 nM. Further, under setting [1], the inhibition at 1 µM was determined as 81.2%. Also, the inhibition at 10 µM under setting [2] amounted to 98.5%.

Regarding `Cc1sc2c(c1CC(=O)/N=c1\scc(-c3ccc(F)c(C(F)(F)F)c3F)n1COP(=O)(O)O)c(=O)n(C)c(=O)n2C` [Example 16, Disodium(4-(2,4-difluoro-3-(trifluoromethyl)phenyl)-2-((2-(1,3,6-trimethyl-2,4-dioxo-1,2,3,4-tetrahydrothieno[2,3-d]pyrimidin-5-yl)acetyl)imino)thiazol-3(2H)-yl)methyl phosphate], the IC50 was greater than 500 nM. For the same molecule, the inhibition at 1 µM under setting [3] came to 48.2%. In addition, the inhibition at 10 µM under setting [4] is 92.7%.

Consider `CCc1sc2c(c1CC(=O)/N=c1\scc(-c3ccc(C(F)(F)F)c(F)c3)n1COP(=O)(O)O)c(=O)n(C)c(=O)n2C` [Example 17, [2-{[(6-ethyl-1,3-dimethyl-2,4-dioxo-1,2,3,4-tetrahydrothieno[2,3-d]pyrimidin-5-yl)acetyl]imino}-4-[3-fluoro-4-(trifluoromethyl)phenyl]-1,3-thiazol-3 (2H)-yl]methyl dihydrogen phosphate], for which the IC50 is greater than 500 nM. Moreover, the inhibition at 1 µM under setting [1] was 20.8%. Under setting [2], the inhibition at 10 µM stood at 96.8%.

With `CCc1sc2c(c1CC(=O)/N=c1\scc(-c3ccc(C(F)(F)F)c(F)c3)n1COP(=O)(O)O)c(=O)n(C)c(=O)n2C` [Example 18, Disodium[2-{[(6-ethyl-1,3-dimethyl-2,4-dioxo-1,2,3,4-tetrahydrothieno[2,3-d]pyrimidin-5-yl)acetyl]imino}-4-[3-fluoro-4-(trifluoromethyl)phenyl]-1,3-thiazol-3(2H)-yl]methyl phosphate], the inhibition at 1 µM under setting [3] is 30%. Besides, the inhibition at 10 µM under setting [4] amounted to 88.7%.

`Cc1oc2c(c1CC(=O)/N=c1\scc(-c3ccc(OC(F)(F)F)c(Cl)c3)n1COC(=O)C(C)(C)C)c(=O)n(C)c(=O)n2C` [Example 19, [4-[3-Chloro-4-(trifluoromethoxy)phenyl]-2-{[(1,3,6-trimethyl-2,4-dioxo-1,2,3,4-tetrahydrofuro[2,3-d]pyrimidin-5-yl)acetyl]imino}-1,3-thiazol-3 (2H)-yl]methyl 2,2-dimethylpropanoate]: the IC50 lay in the range of 100 to 500 nM. Under setting [1], the inhibition at 1 µM stood at 70.3%. Besides, the inhibition at 10 µM under setting [2] came out at 96.7%.

As for `CC[C@H](C)[C@H](N)C(=O)OCn1c(-c2ccc(OC(F)(F)F)c(Cl)c2)cs/c1=N\C(=O)Cc1c(C)oc2c1c(=O)n(C)c(=O)n2C` [Example 22, [4-[3-Chloro-4-(trifluoromethoxy)phenyl]-2-{[(1,3,6-trimethyl-2,4-dioxo-1,2,3,4-tetrahydrofuro[2,3-d]pyrimidin-5-yl)acetyl]imino}-1,3-thiazol-3 (2H)-yl]methyl L-isoleucinate hydrochloride], the IC50 was in the range of 100 to 500 nM. For the same molecule, the inhibition at 1 µM under setting [1] was 99.2%. For the same molecule, under setting [2], the inhibition at 10 µM worked out at 99.6%.

Take `Cc1oc2c(c1CC(=O)/N=c1\scc(-c3ccc(OC(F)(F)F)c(Cl)c3)n1COC(=O)[C@@H](N)Cc1ccccc1)c(=O)n(C)c(=O)n2C` [Example 24, 4-[3-Chloro-4-(trifluoromethoxy)phenyl]-2-{[(1,3,6-trimethyl-2,4-dioxo-1,2,3,4-tetrahydrofuro[2,3-d]pyrimidin-5-yl)acetyl]imino}-1,3-thiazol-3(2H)-yl]methyl L-phenylalaninate hydrochloride]: the IC50 is less than 100 nM. The inhibition at 1 µM under setting [1] worked out at 98.1%. Also, the inhibition at 10 µM under setting [2] was 99.8%.

Turning to `Cc1oc2c(c1CC(=O)/N=c1\scc(-c3ccc(C(F)(F)F)c(F)c3F)n1COP(=O)(O)O)c(=O)n(C)c(=O)n2C` [Example 27, 4-[2,3-Difluoro-4-(trifluoromethyl)phenyl]-2-{[(1,3,6-trimethyl-2,4-dioxo-1,2,3,4-tetrahydrofuro[2,3-d]pyrimidin-5-yl)acetyl]imino}-1,3-thiazol-3(2H)-yl]methyl dihydrogen phosphate], the concentration for half-maximal inhibition (IC50) was less than 100 nM. In addition, under setting [1], the inhibition at 1 µM worked out at 93.8%. Also, the inhibition at 10 µM under setting [2] came out at 99.3%.

As to `Cn1c(=O)c2c(CC(=O)/N=c3\scc(-c4ccc(C(F)(F)F)c(F)c4F)n3COP(=O)(O)O)nsc2n(C)c1=O` [Example 31, [4-[2,3-Difluoro-4-(trifluoromethyl)phenyl]-2-{[(5,7-dimethyl-4,6-dioxo-4,5,6,7-tetrahydro[1,2]thiazolo[5,4-d]pyrimidin-3-yl)acetyl]imino}-1,3-thiazol-3 (2H)-yl]methyl dihydrogen phosphate], the concentration for half-maximal inhibition (IC50) was greater than 500 nM. Besides, the inhibition at 1 µM under setting [1] was 60%. Further, the inhibition at 10 µM under setting [2] was found to be 99.2%.

The record behind these values is patent publication US9073955B2, “2-amino-4-arylthiazole compounds as TRPA1 antagonists” (Glenmark Pharmaceuticals, S.A., priority 2010, dated 2015).
